This is an account of results in PubChem BioAssay AID344 (DTP/NCI, 2004).

The structures appear in SMILES notation. “And” between values parts separate entries of the source, which are not always exact repeats. Equal entries are not always repeated. Inconclusive results and toxic doses are left out.

The test system of this assay is mice, LPC-1 plasma cell tumor ip, median survival T/C. Description: NCI In Vivo Anticancer Drug Screen. Data for tumor model Lieberman Plasma Cell No. 1 (LPC-1) (intraperitoneal) in unknown mice. The conditions noted are these: endpoint: median survival time, higher = longer survival. As to the method:
The antitumor activity of compounds was measured in mice bearing transplantable tumors. Survival or tumor size were measured and the results are expressed as the measurement made in the treated group (T) divided by the measurement made in the vehicle treated control group (C). The tumor model used in this assay is Lieberman Plasma Cell No. 1 (LPC-1) (intraperitoneal) in unknown mice

The mark [1] stands for this setting: dose: 25.0 mg/kg/injection, schedule: Q01DX028 (sc), vehicle: carboxymethylcellulose (CMC).
[2] abbreviates: dose: 50.0 mg/kg/injection, schedule: Q01DX028 (sc), vehicle: carboxymethylcellulose (CMC).
Where [3] appears, read: dose: 100.0 mg/kg/injection, schedule: Q01DX028 (sc), vehicle: carboxymethylcellulose (CMC).

Take `N[C@@H](Cc1ccc(N(CCCl)CCCl)cc1)C(=O)O`: the T/C is 92 % of control (dose: 0.57 mg/kg/injection, schedule: Q01DX024 (oral), vehicle: carboxymethylcellulose (CMC)); 170 % of control (dose: 0.64 mg/kg/injection, schedule: Q01DX028 (sc), vehicle: saline); 96 % of control (dose: 0.65 mg/kg/injection, schedule: Q## X024 (sc), vehicle: saline); 107 % of control (dose: 1.07 mg/kg/injection, schedule: Q01DX028 (sc), vehicle: saline); 96 % of control (dose: 1.08 mg/kg/injection, schedule: Q01DX008 (sc), vehicle: saline); 103 % of control (dose: 1.08 mg/kg/injection, schedule: Q01DX009 (sc), vehicle: saline). For the same compound, the T/C runs as follows: (dose: 1.08 mg/kg/injection, schedule: Q## X024 (sc), vehicle: saline) 96 % of control; (dose: 1.15 mg/kg/injection, schedule: Q01DX024 (oral), vehicle: carboxymethylcellulose (CMC)) 100 % of control; (dose: 1.7 mg/kg/injection, schedule: Q01DX028 (sc), vehicle: saline) 182 % of control; (dose: 1.8 mg/kg/injection, schedule: Q01DX005 (sc), vehicle: saline) 381 % of control; (dose: 1.8 mg/kg/injection, schedule: Q01DX008 (sc), vehicle: saline) 100 % of control; (dose: 1.8 mg/kg/injection, schedule: Q01DX009 (sc), vehicle: saline) 103 % of control. For the same compound, the T/C by setting is: (dose: 1.8 mg/kg/injection, schedule: Q## X024 (sc), vehicle: saline) 103 % of control; (dose: 1.87 mg/kg/injection, schedule: Q01DX005 (oral), vehicle: carboxymethylcellulose (CMC)) 88 % of control; (dose: 1.87 mg/kg/injection, schedule: Q## X015 (oral), vehicle: carboxymethylcellulose (CMC)) 190 % of control; (dose: 1.9 mg/kg/injection, schedule: Q01DX005 (ip), vehicle: saline) 161 % of control; (dose: 1.9 mg/kg/injection, schedule: Q## X015 (ip), vehicle: saline) 105 % of control; (dose: 2.3 mg/kg/injection, schedule: Q01DX024 (oral), vehicle: carboxymethylcellulose (CMC)) 91 % of control and 102 % of control. Moreover, the T/C is, setting by setting: (dose: 2.9 mg/kg/injection, schedule: Q01DX028 (sc), vehicle: saline) 155 % of control; (dose: 3.0 mg/kg/injection, schedule: Q01DX008 (sc), vehicle: saline) 96 % of control; (dose: 3.0 mg/kg/injection, schedule: Q01DX009 (sc), vehicle: saline) 100 % of control; (dose: 3.0 mg/kg/injection, schedule: Q01DX028 (sc), vehicle: saline) 164 % of control and 167 % of control and 152 % of control; (dose: 3.0 mg/kg/injection, schedule: Q04DX003 (sc), vehicle: saline) 109 % of control; (dose: 3.0 mg/kg/injection, schedule: Q## X024 (sc), vehicle: saline) 96 % of control. Further, the T/C (dose: 3.75 mg/kg/injection, schedule: Q01DX005 (oral), vehicle: carboxymethylcellulose (CMC)) was 100 % of control and 104 % of control; the T/C (dose: 3.75 mg/kg/injection, schedule: Q## X010 (oral), vehicle: carboxymethylcellulose (CMC)) is 95 % of control and 97 % of control; the T/C (dose: 3.75 mg/kg/injection, schedule: Q## X015 (oral), vehicle: carboxymethylcellulose (CMC)) is 214 % of control and 117 % of control; the T/C (dose: 3.8 mg/kg/injection, schedule: Q## X010 (ip), vehicle: saline) was 214 % of control; the T/C (dose: 3.8 mg/kg/injection, schedule: Q## X015 (ip), vehicle: saline) is 202 % of control; the T/C (dose: 4.0 mg/kg/injection, schedule: Q01DX028 (sc), vehicle: methylcellulose (MC)) was 97 % of control. Also, the T/C was 88 % of control and 102 % of control (dose: 4.5 mg/kg/injection, schedule: Q01DX024 (oral), vehicle: carboxymethylcellulose (CMC)); 96 % of control (dose: 5.0 mg/kg/injection, schedule: Q01DX008 (sc), vehicle: saline); 103 % of control (dose: 5.0 mg/kg/injection, schedule: Q01DX009 (sc), vehicle: saline); 111 % of control (dose: 5.0 mg/kg/injection, schedule: Q01DX024 (ip), vehicle: saline); 104 % of control and 105 % of control (dose: 5.0 mg/kg/injection, schedule: Q01DX028 (sc), vehicle: saline); 166 % of control (dose: 5.0 mg/kg/injection, schedule: Q04DX003 (sc), vehicle: saline). Further, the T/C is 96 % of control (dose: 5.0 mg/kg/injection, schedule: Q## X024 (sc), vehicle: saline); 94 % of control and 104 % of control (dose: 7.5 mg/kg/injection, schedule: Q01DX005 (oral), vehicle: carboxymethylcellulose (CMC)); 91 % of control and 95 % of control (dose: 7.5 mg/kg/injection, schedule: Q## X010 (oral), vehicle: carboxymethylcellulose (CMC)); 108 % of control (dose: 7.5 mg/kg/injection, schedule: Q## X015 (ip), vehicle: saline); 96 % of control (dose: 8.4 mg/kg/injection, schedule: Q01DX005 (sc), vehicle: saline); 96 % of control (dose: 8.4 mg/kg/injection, schedule: Q01DX008 (sc), vehicle: saline). For the same compound, the T/C (dose: 8.4 mg/kg/injection, schedule: Q01DX009 (sc), vehicle: saline) is 100 % of control; the T/C (dose: 8.4 mg/kg/injection, schedule: Q01DX028 (sc), vehicle: saline) was 100 % of control; the T/C (dose: 8.4 mg/kg/injection, schedule: Q04DX003 (sc), vehicle: saline) is 118 % of control; the T/C (dose: 9.0 mg/kg/injection, schedule: Q01DX024 (oral), vehicle: carboxymethylcellulose (CMC)) was 88 % of control and 90 % of control; the T/C (dose: 10.0 mg/kg/injection, schedule: Q01DX024 (ip), vehicle: saline) was 94 % of control; the T/C (dose: 14.0 mg/kg/injection, schedule: Q04DX003 (sc), vehicle: saline) was 109 % of control. The T/C runs as follows: (dose: 15.0 mg/kg/injection, schedule: Q01DX005 (ip), vehicle: saline) 91 % of control; (dose: 15.0 mg/kg/injection, schedule: Q## X010 (ip), vehicle: saline) 88 % of control; (dose: 15.0 mg/kg/injection, schedule: Q## X010 (oral), vehicle: carboxymethylcellulose (CMC)) 97 % of control; (dose: 15.0 mg/kg/injection, schedule: Q## X015 (ip), vehicle: saline) 88 % of control; (dose: 15.0 mg/kg/injection, schedule: Q## X015 (oral), vehicle: carboxymethylcellulose (CMC)) 88 % of control and 90 % of control; (dose: 18.0 mg/kg/injection, schedule: Q01DX001 (ip), vehicle: saline) 123 % of control. Moreover, the T/C is 90 % of control (dose: 19.0 mg/kg/injection, schedule: Q01DX001 (oral), vehicle: carboxymethylcellulose (CMC)); 103 % of control (dose: 23.0 mg/kg/injection, schedule: Q04DX003 (sc), vehicle: saline); 88 % of control and 90 % of control (dose: 30.0 mg/kg/injection, schedule: Q01DX005 (oral), vehicle: carboxymethylcellulose (CMC)); 90 % of control (dose: 30.0 mg/kg/injection, schedule: Q## X015 (oral), vehicle: carboxymethylcellulose (CMC)); 94 % of control (dose: 37.5 mg/kg/injection, schedule: Q01DX001 (ip), vehicle: saline); 96 % of control (dose: 39.0 mg/kg/injection, schedule: Q01DX001 (sc), vehicle: saline). Besides, the T/C reads like this: (dose: 60.0 mg/kg/injection, schedule: Q01DX005 (oral), vehicle: carboxymethylcellulose (CMC)) 88 % of control; (dose: 65.0 mg/kg/injection, schedule: Q01DX001 (ip), vehicle: saline) 88 % of control; (dose: 65.0 mg/kg/injection, schedule: Q01DX001 (sc), vehicle: saline) 96 % of control.
As for `CC[C@H]1CN2CCc3cc(OC)c(OC)cc3[C@@H]2C[C@@H]1C[C@H]1NCCc2cc(OC)c(OC)cc21`, the T/C reads like this: (dose: 1.0 mg/kg/injection, schedule: Q01DX028 (sc), vehicle: saline) 106 % of control; (dose: 2.0 mg/kg/injection, schedule: Q01DX028 (sc), vehicle: saline) 106 % of control; (dose: 4.0 mg/kg/injection, schedule: Q01DX028 (sc), vehicle: saline) 94 % of control.
As for `Cn1cnc([N+](=O)[O-])c1Sc1ncnc2nc[nH]c12`, the T/C reads like this: under setting [1], 102 % of control; under setting [2], 111 % of control and 114 % of control; (dose: 75.0 mg/kg/injection, schedule: Q01DX028 (sc), vehicle: carboxymethylcellulose (CMC)) 108 % of control; under setting [3], 108 % of control.
Regarding `CN(C)c1ccc(/C=C2\C=Cc3ccccc32)cc1`, the T/C is 102 % of control (dose: 6.3 mg/kg/injection, schedule: Q01DX028 (sc), vehicle: carboxymethylcellulose (CMC)); 102 % of control (dose: 12.5 mg/kg/injection, schedule: Q01DX028 (sc), vehicle: carboxymethylcellulose (CMC)); 102 % of control under setting [1]; 97 % of control under setting [2]; 94 % of control under setting [3].
